Assay results from patent publication US10597388B2, “Pyridazinone herbicides” (FMC CORPORATION, priority 2014, dated 2020).

How the values were obtained:
Format in all cases: in vivo
[1] = system: waterhemp (common waterhemp, Amaranthus rudis); assay: Test E greenhouse herbicide test, pre- and postemergence
Source text: (§1) Seeds of plant species selected from corn (Zea mays), soybean (Glycine max), velvetleaf (Abutilon theophrasti), lambsquarters (Chenopodium album), wild poinsettia (Euphorbia heterophylla), pigweed, palmer (palmer pigweed, Amaranthus palmeri), waterhemp (common waterhemp, Amaranthus rudis), surinam grass (Brachiaria decumbens), crabgrass, large (large crabgrass, Digitaria sanguinalis), crabgrass, Brazilian (Brazilian crabgrass, Digitaria horizontalis), panicum, fall (fall panicum, Panicum dichotomiflorum), foxtail, giant (giant foxtail, Setaria faberii), foxtail, green (green foxtail, Setaria viridis), goosegrass (Eleusine indica), johnsongrass (Sorghum halepense), ragweed (common ragweed, Ambrosia elatior), barnyardgrass (Echinochloa crus-galli), sandbur (southem sandbur, Cenchrus echinatus), arrowleaf sida (Sida rhombifolia), Italian ryegrass (Lolium multiflorum), dayflower (Virginia (VA) dayflower, Commelina virginica), field bindweed (Convolvulus arvensis), momingglory (Ipomoea coccinea), nightshade (eastern black nightshade, Solanum ptycanthum), kochia (Kochia scoparia), nutsedge, yellow (yellow nutsedge, Cyperus esculentus), horseweed (Conyza canadensis), and beggarticks (hairy beggarticks, Bidens pilosa), were planted into a silt loam soil and treated preemergence with test chemicals formulated in a non-phytotoxic solvent mixture which included a surfactant.
(§2) At the same time, plants from these crop and weed species and also waterhemp_RES1, (ALS & Triazine resistant common waterhemp, Amaranthus rudis), and waterhemp_RES2, (ALS & HPPD resistant common waterhemp, Amaranthus rudis) were planted in pots containing Redi-Earth® planting medium (Scotts Company, 14111 Scottslawn Road, Marysville, Ohio 43041) comprising spaghnum peat moss, vermiculite, wetting agent and starter nutrients were treated with postemergence applications of test chemicals formulated in the same manner. Plants ranged in height from 2 to 18 cm for postemergence treatments (1- to 4-leaf stage). Treated plants and controls were maintained in a greenhouse for 14 to 21 d, after which time all species were compared to controls and visually evaluated. Plant response ratings, summarized in Table E, are based on a scale of 0 to 100 where 0 is no effect and 100 is complete control. A dash (-) response means no test result.

[2] = system: arrowleaf sida (Sida rhombifolia); assay: as above
Source text: as §1, §2

soybean (Glycine max) = assay: as above
Source text: as §1, §2

[3] = system: nutsedge, yellow (yellow nutsedge, Cyperus esculentus); assay: as above; conditions: Preemergence
Source text: as §1, §2

[4] = system: velvetleaf (Abutilon theophrasti); assay: as above; conditions: Preemergence
Source text: as §1, §2

[5] = system: sandbur (southem sandbur, Cenchrus echinatus); assay: as above
Source text: as §1, §2

kochia (Kochia scoparia) = assay: as above; conditions: Preemergence
Source text: as §1, §2

[6] = system: lambsquarters (Chenopodium album); assay: as above; conditions: Preemergence
Source text: as §1, §2

[7] = system: pigweed, palmer (palmer pigweed, Amaranthus palmeri); assay: as above
Source text: as §1, §2

[8] = system: foxtail, green (green foxtail, Setaria viridis); assay: as above; conditions: Preemergence
Source text: as §1, §2

[9] = system: crabgrass, Brazilian (Brazilian crabgrass, Digitaria horizontalis); assay: as above
Source text: as §1, §2

[10] = system: johnsongrass (Sorghum halepense); assay: as above; conditions: Preemergence
Source text: as §1, §2

[11] = system: foxtail, giant (giant foxtail, Setaria faberii); assay: as above; conditions: Preemergence
Source text: as §1, §2

[12] = system: ragweed (common ragweed, Ambrosia elatior); assay: as above; conditions: Preemergence
Source text: as §1, §2

[13] = system: waterhemp_RES1 (ALS & Triazine resistant common waterhemp, Amaranthus rudis); assay: Test E greenhouse herbicide test, postemergence
How it was run: (§3)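 Values are visual ratings from 0 (no effect) to 100 (complete control), scored relative to untreated controls 14 to 21 d after treatment. Plants were 1- to 4-leaf seedlings (2 to 18 cm) in potting medium and received postemergence applications of formulated test chemicals.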

[14] = system: waterhemp_RES2 (ALS & HPPD resistant common waterhemp, Amaranthus rudis); assay: Test E greenhouse herbicide test, postemergence
How it was run: as §3

[15] = 62 g ai/ha, Postemergence, scale 0 to 100 (0 no effect, 100 complete control)
[16] = 62 g ai/ha, Preemergence, scale 0 to 100 (0 no effect, 100 complete control)
[17] = 125 g ai/ha, Postemergence, scale 0 to 100 (0 no effect, 100 complete control)
[18] = 125 g ai/ha, Preemergence, scale 0 to 100 (0 no effect, 100 complete control)
[19] = 250 g ai/ha, Postemergence, scale 0 to 100 (0 no effect, 100 complete control)
[20] = Postemergence, 16 g ai/ha, visual, scale 0 no effect to 100 complete control
[21] = Postemergence, 31 g ai/ha, visual, scale 0 no effect to 100 complete control
[22] = Preemergence, 16 g ai/ha, scale 0 to 100, 0 no effect, 100 complete control
[23] = Preemergence, 31 g ai/ha, scale 0 to 100, 0 no effect, 100 complete control
[24] = Preemergence, 250 g ai/ha, visual, scale 0 no effect to 100 complete control
[25] = Preemergence, 125 g ai/ha, visual, scale 0 no effect to 100 complete control
[26] = 62 g ai/ha, scale 0 to 100 (0 no effect, 100 complete control)
[27] = 125 g ai/ha, scale 0 to 100 (0 no effect, 100 complete control)
[28] = 16 g ai/ha, scale 0 to 100, 0 no effect, 100 complete control
[29] = 31 g ai/ha, scale 0 to 100, 0 no effect, 100 complete control
[30] = 250 g ai/ha, visual, scale 0 no effect to 100 complete control
[31] = 125 g ai/ha, visual, scale 0 no effect to 100 complete control
[32] = 16 g ai/ha, visual, scale 0 no effect to 100 complete control
[33] = 31 g ai/ha, visual, scale 0 no effect to 100 complete control
[34] = 250 g ai/ha, scale 0 to 100 (0 no effect, 100 complete control)

Cc1ccc2sc(C)c(-c3c(O)c(C)nn(C)c3=O)c2c1 [Compound 1, 4-(2,5-dimethylbenzo[b]thien-3-yl)-5-hydroxy-2,6-dimethyl-3(2H)-pyridazinone]
Plant response rating, Waterhemp [1, 15]: 95 | Plant response rating, Waterhemp [1, 16]: 100 | Plant response rating, Waterhemp [1, 17]: 98 | Plant response rating, Waterhemp [1, 18]: 100 | Plant response rating, Waterhemp [1, 19]: 100 | Plant response rating, Waterhemp [1, 20]: 70 | Plant response rating, Waterhemp [1, 21]: 85 | Plant response rating, Waterhemp [1, 22]: 35 | Plant response rating, Waterhemp [1, 23]: 90 | Plant response rating, Waterhemp [1, 24]: 100 | Plant response rating, Arrowleaf Sida [2, 15]: 70 | Plant response rating, Arrowleaf Sida [2, 16]: 65 | Plant response rating, Arrowleaf Sida [2, 17]: 70 | Plant response rating, Arrowleaf Sida [2, 19]: 80 | Plant response rating, Arrowleaf Sida [2, 20]: 30 | Plant response rating, Arrowleaf Sida [2, 21]: 50 | Plant response rating, Arrowleaf Sida [2, 22]: 0 | Plant response rating, Arrowleaf Sida [2, 23]: 0 | Plant response rating, Arrowleaf Sida [2, 25]: 75 | Plant response rating, Arrowleaf Sida [2, 24]: 80 | Plant response rating, Soybean (soybean (Glycine max); [15]): 10 | Plant response rating, Soybean (soybean (Glycine max); [16]): 15 | Plant response rating, Soybean (soybean (Glycine max); [17]): 15 | Plant response rating, Soybean (soybean (Glycine max); [18]): 40 | Plant response rating, Soybean (soybean (Glycine max); [19]): 20 | Plant response rating, Soybean (soybean (Glycine max); [20]): 0 | Plant response rating, Soybean (soybean (Glycine max); [21]): 0 | Plant response rating, Soybean (soybean (Glycine max); [22]): 0 | Plant response rating, Soybean (soybean (Glycine max); [23]): 0 | Plant response rating, Soybean (soybean (Glycine max); [24]): 75 | Plant response rating, Nutsedge, Yellow [3, 26]: 15 | Plant response rating, Nutsedge, Yellow [3, 27]: 50 | Plant response rating, Nutsedge, Yellow [3, 28]: 0 | Plant response rating, Nutsedge, Yellow [3, 29]: 10 | Plant response rating, Nutsedge, Yellow [3, 30]: 70 | Plant response rating, Velvetleaf [4, 26]: 75 | Plant response rating, Velvetleaf [4, 27]: 90 | Plant response rating, Velvetleaf [4, 28]: 35 | Plant response rating, Velvetleaf [4, 29]: 75 | Plant response rating, Velvetleaf [4, 30]: 98 | Plant response rating, Sandbur [5, 15]: 30 | Plant response rating, Sandbur [5, 16]: 20 | Plant response rating, Sandbur [5, 17]: 30 | Plant response rating, Sandbur [5, 18]: 70 | Plant response rating, Sandbur [5, 19]: 30 | Plant response rating, Sandbur [5, 20]: 0 | Plant response rating, Sandbur [5, 21]: 10 | Plant response rating, Sandbur [5, 22]: 0 | Plant response rating, Sandbur [5, 23]: 10 | Plant response rating, Sandbur [5, 24]: 70 | Plant response rating, Kochia (kochia (Kochia scoparia); [26]): 5 | Plant response rating, Kochia (kochia (Kochia scoparia); [28]): 0 | Plant response rating, Kochia (kochia (Kochia scoparia); [29]): 0 | Plant response rating, Kochia (kochia (Kochia scoparia); [31]): 35 | Plant response rating, Kochia (kochia (Kochia scoparia); [30]): 85 | Plant response rating, Lambsquarters [6, 26]: 98 | Plant response rating, Lambsquarters [6, 28]: 65 | Plant response rating, Lambsquarters [6, 29]: 65 | Plant response rating, Lambsquarters [6, 31]: 100 | Plant response rating, Lambsquarters [6, 30]: 100 | Plant response rating, Pigweed, Palmer [7, 15]: 90 | Plant response rating, Pigweed, Palmer [7, 16]: 100 | Plant response rating, Pigweed, Palmer [7, 17]: 75 | Plant response rating, Pigweed, Palmer [7, 18]: 100 | Plant response rating, Pigweed, Palmer [7, 19]: 98 | Plant response rating, Pigweed, Palmer [7, 20]: 70 | Plant response rating, Pigweed, Palmer [7, 21]: 20 | Plant response rating, Pigweed, Palmer [7, 22]: 20 | Plant response rating, Pigweed, Palmer [7, 23]: 90 | Plant response rating, Pigweed, Palmer [7, 24]: 100 | Plant response rating, Foxtail, Green [8, 26]: 70 | Plant response rating, Foxtail, Green [8, 28]: 0 | Plant response rating, Foxtail, Green [8, 29]: 15 | Plant response rating, Foxtail, Green [8, 31]: 90 | Plant response rating, Foxtail, Green [8, 30]: 90 | Plant response rating, Crabgrass, Brazil [9, 15]: 15 | Plant response rating, Crabgrass, Brazil [9, 16]: 80 | Plant response rating, Crabgrass, Brazil [9, 17]: 20 | Plant response rating, Crabgrass, Brazil [9, 19]: 35 | Plant response rating, Crabgrass, Brazil [9, 20]: 0 | Plant response rating, Crabgrass, Brazil [9, 21]: 15 | Plant response rating, Crabgrass, Brazil [9, 22]: 0 | Plant response rating, Crabgrass, Brazil [9, 23]: 10 | Plant response rating, Crabgrass, Brazil [9, 25]: 100 | Plant response rating, Crabgrass, Brazil [9, 24]: 100 | Plant response rating, Johnsongrass [10, 26]: 0 | Plant response rating, Johnsongrass [10, 28]: 0 | Plant response rating, Johnsongrass [10, 29]: 0 | Plant response rating, Johnsongrass [10, 31]: 30 | Plant response rating, Johnsongrass [10, 30]: 40 | Plant response rating, Foxtail, Giant [11, 26]: 35 | Plant response rating, Foxtail, Giant [11, 28]: 0 | Plant response rating, Foxtail, Giant [11, 29]: 50 | Plant response rating, Foxtail, Giant [11, 31]: 95 | Plant response rating, Foxtail, Giant [11, 30]: 98 | Plant response rating, Ragweed [12, 26]: 75 | Plant response rating, Ragweed [12, 27]: 100 | Plant response rating, Ragweed [12, 28]: 35 | Plant response rating, Ragweed [12, 29]: 70 | Plant response rating, Ragweed [12, 30]: 100 | Plant response rating, Waterhemp_RES1 [13, 32]: 75 | Plant response rating, Waterhemp_RES1 [13, 33]: 80 | Plant response rating, Waterhemp_RES1 [13, 26]: 90 | Plant response rating, Waterhemp_RES1 [13, 27]: 98 | Plant response rating, Waterhemp_RES1 [13, 34]: 100 | Plant response rating, Waterhemp_RES2 [14, 32]: 0 | Plant response rating, Waterhemp_RES2 [14, 33]: 75 | Plant response rating, Waterhemp_RES2 [14, 26]: 70 | Plant response rating, Waterhemp_RES2 [14, 27]: 70 | Plant response rating, Waterhemp_RES2 [14, 34]: 75
